Data published in patent US12600696B2 (XENIOPRO GMBH, priority 2017, dated 2026).

Assays:
Assay type in all cases: cell-based
[1] = system: HPEKp cells (human epidermal keratinocyte progenitors, pooled); experiment: alamarBlue proliferation assay with HPEKp cells; settings: 120 h, relative to DMSO basis level 1.0, read-out: weighted arithmetic mean (AVEw) of normalized fluorescence intensity, activity range
Protocol: (§1) The antiproliferative activities of compounds falling under formula I, formula II, formula III, formula IV and formula V were investigated on cells or cell lines originating from a disorder of the myeloid cell compartment, the neuroendocrine system, the cervix, and the mucosal epithelium, as well as from the skin epithelium. To this end, HL-60 cells, TT cells, HeLa cells, CAL-27 cells and human primary epidermal keratinocytes (HPEK) were seeded into 96-well plates suitable for fluorescence assays (CORNING #3598) at following initial cell numbers: 1000 cells per well for HL-60; 9000 cells per well for TT; 2000 cells per well for HeLa, 2000 cells per well for CAL-27, 2000 cells per well for HPEK. The cells were treated with compounds at indicated final concentrations (diluted from the 1000× stock-solutions in DMSO to a final DMSO concentration of 0.1% v/v) or with the empty carrier DMSO at 0.1% v/v as control for 5 days. At day 5 after starting the treatments the cells were subjected to the alamarBlue® Proliferation Assay (Bio-Rad Serotec GmbH, BUF012B) according to the protocol of the manufacturer. The readout was taken with a multi-well plate-reader in the fluorescence mode with applying a filter for excitation at 560 nm (band width 10 nm) and for emission at 590 nm (band width 10 nm). Resveratrol (RES) treatment was included as control for growth inhibition.
(§2) The assays were performed in duplicate or more replicates of independent single experiments each containing a six-fold replicate for every condition. For every individual plate, the measured fluorescence intensity values of the conditions with compound treatment were normalized against the corresponding equally weighted arithmetic mean of the fluorescence intensity values of the six DMSO treated control wells in order to obtain the relative values to a baseline level of 1.0. The statistical calculations were performed in analogy to the luciferase assay as described above. To this end, two independent outlier analyses were performed according to the methods by Peirce and Chauvenet (Ross, Journal of Engineering Technology 2003, 1-12). Outliers confirmed by at least one of the methods were excluded from the calculations but not more than one value out of six per compound within a single experiment. The weighted arithmetic mean AVEw for each compound was calculated from the normalized values over all independent replicates of the single experiments comprising the six replicates each. The corresponding standard deviation for the weighted arithmetic mean was calculated according to the method described by Bronstein et al. (Bronstein, Semendjajew, Musiol, Mühlig, Taschenbuch der Mathematik, 5th edition 2001 (German), publisher: Verlag Harri Deutsch, Frankfurt am Main and Thun) and was combined with the Gauß′ error propagation associated with the performed calculation for the normalization. The resulting standard deviation is herein referred to as “combined standard deviation”.
HPEKp cells were cultivated according to the protocol of the provider in CnT-Prime epithelial culture medium (CELLnTEC, #CnT-PR, a fully defined, low calcium formulation, completely free of animal or human-derived components) without addition of further components.
(§3) A compound is considered as a growth inhibitor of HPEKp cells, if—at a reference concentration of 10 μM—the weighted arithmetic mean of the normalized fluorescence intensity values after addition of the corresponding combined standard deviation amounts to 0.9 or lower, in particular to 0.8 or lower, 0.7 or lower, 0.6 or lower, 0.4 or lower, and 0.2 or lower, relative to the overall basis level of 1.0. The overall basis level was calculated as the weighted arithmetic mean of all normalized values from the DMSO control measurements in analogy to the calculations performed for the test-compounds. The corresponding combined standard deviation for the DMSO values amounts to less than 1·10^−2.

[2] = system: HL-60 cells (human acute myeloid leukemia cells); experiment: alamarBlue proliferation assay with HL-60 cells; settings: 120 h, 5 days, relative to DMSO baseline level of 1.0, read-out: AVEw, weighted arithmetic mean of normalized fluorescence intensity values (Activity Range), HL-60 proliferation
How it was run: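 HL-60 cells (1000/well, RPMI 1640 + 10% FBS) exposed to compound in 0.1% DMSO for 5 days, then alamarBlue fluorescence read (ex 560/em 590 nm). Signals normalized to six DMSO wells per plate (baseline 1.0); outliers removed by Peirce/Chauvenet; weighted mean with combined SD; inhibitor criterion judged at 20 μM reference concentration.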

[3] = system: CAL-27 cells (human tongue squamous cell carcinoma cells); experiment: alamarBlue proliferation assay with CAL-27 cells; settings: Homo sapiens, 120 h, 20 μM, 5 days, relative to DMSO baseline level of 1.0, read-out: AVEw, weighted arithmetic mean of normalized fluorescence intensity values (Activity Range), CAL-27 proliferation
Protocol: as §1, §2
CAL-27 cells were cultivated according to the protocol of the provider (but at 5% instead of 10% CO2) in DMEM medium (Fisherscientific, #11584456) containing 10% fetal bovine serum (Fisherscientific, #15517589).
as §3, with “of CAL-27” for “of HPEKp”, “of 20” for “of 10”

[4] = system: Notch signaling (hNotch1ΔE, human Notch1 receptor) in HeLa cells; experiment: Notch reporter assay (luciferase luminescence readout in transfected HeLa cells); settings: Homo sapiens, 20 hours, relative to DMSO baseline level of 1.0, read-out: AVEw, weighted arithmetic mean of double-normalized Notch-reporter luciferase luminescence values (Activity Range)
How it was run: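 HeLa cells were transiently transfected for 24 h with membrane-tethered constitutively active hNotch1ΔE, a CSL-promoter Firefly luciferase reporter and constitutive SV40-Renilla luciferase. Compounds were then applied at 10 μM (0.1% DMSO) for 20 h. Firefly/Renilla dual-luciferase ratios were normalized to DMSO control (baseline 1.0), outliers were excluded, and replicate values were averaged across ≥3 independent experiments.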

Row | Compound | activity at 10 µM [1] [%] | activity at 20 µM [2] [%] | activity at 20 µM [3] [%] | fold induction at 10 µM [4]
1 | CC(C)(C)c1ccc(Oc2ncc(C(=O)O)cc2F)cc1 [Compound 424, 6-(4-(tert-butyl)phenoxy)-5-fluoronicotinic acid] | 70 to 80 |  |  | 
2 | NC(=O)c1ccc(Oc2ccc(C3(C(F)(F)F)CC3)cc2Cl)nc1 [Compound 801, 6-(2-chloro-4-(1-(trifluoromethyl)cyclopropyl)phenoxy)nicotinamide] | 80 to 90 |  |  | 
3 | CC(C)c1ccc(Oc2ccc(C(=O)NO)cc2)cc1 [Compound 170, N-hydroxy-4-(4-isopropylphenoxy)benzamide] |  | 0 to 20 | 20 to 40 | 1.1 to 1.2
4 | CCCc1ccc(Oc2ccc(C(=O)NO)cn2)cc1 [Compound 268, N-hydroxy-6-(4-propylphenoxy)nicotinamide] |  | 0 to 20 | 0 to 20 | 1.3 to 1.4
5 | CN(C)C(=O)c1ccc(Oc2ccc(C3(C(F)(F)F)CC3)cc2)nc1 [Compound 820, N,N-Dimethyl-6-(4-(1-(trifluoromethyl)cyclopropyl)phenoxy)-nicotinamide] |  | 40 to 60 | 80 to 90 | 1.4 to 1.7
6 | CNC(=O)c1ccc(Oc2ccc(C3CC4CCC3CC4)cc2)nc1 (stereo not drawn) [Compound 312, 6-(4-((1s,4s)-bicyclo[2.2.2]octan-2-yl)phenoxy)-N-methylnicotinamide] | 70 to 80 |  |  | 
7 | CCOC(=O)c1ccc(Oc2ccc(C3(C(F)(F)C(F)(F)F)CC3)cc2)nc1 [Compound 749, Ethyl 6-(4-(1-(perfluoroethyl)cyclopropyl)phenoxy)nicotinate] | 80 to 90 |  |  | 
8 | O=C(NO)c1ccc(Oc2ccc(C(F)(F)F)cc2)nc1 [Compound 275, N-Hydroxy-6-(4-(trifluoromethyl)phenoxy)nicotinamide] |  | 0 to 20 | 0 to 20 | 1.2 to 1.3
9 | CN(C)C(=O)c1ccc(Oc2ccc(C34CC5CC(CC(C5)C3)C4)cc2)c(F)c1 [Compound 596, 4-(4-((3r,5r,7r)-adamantan-1-yl)phenoxy)-3-fluoro-N,N-dimethylbenzamide] |  | 20 to 40 | 80 to 90 | 
10 | Cc1ccc(Oc2ccc(C(=O)NO)cn2)cc1 [Compound 266, N-hydroxy-6-(p-tolyloxy)nicotinamide] |  | 0 to 20 | 40 to 60 | 1.4 to 1.7
11 | CCCCCc1ccc(Oc2ccc(C(=O)NO)cc2)cc1 [Compound 168, N-hydroxy-4-(4-pentylphenoxy)benzamide] |  | 0 to 20 | 0 to 20 | 1.3 to 1.4
12 | CCc1ccc(Oc2ccc(C(=O)NO)cn2)cc1 [Compound 267, 6-(4-ethylphenoxy)-N-hydroxynicotinamide] |  | 0 to 20 | 20 to 40 | 1.1 to 1.2
13 | COC(=O)c1ccc(Oc2ccc(C3(C(F)(F)F)CC3)cc2Cl)nc1 [Compound 747, methyl 6-(2-chloro-4-(1-(trifluoromethyl)cyclopropyl)phenoxy)nicotinate] | 80 to 90 |  |  | 
14 | O=C(NO)c1ccc(Oc2ccc(C3(C(F)(F)F)CC3)cc2Cl)cc1 [Compound 774, 4-(2-chloro-4-(1-(trifluoromethyl)cyclopropyl)phenoxy)-N-hydroxybenzamide] |  | 0 to 20 | 70 to 80 | 
15 | CNC(=O)c1ccc(Oc2ccc(C34CC5CC(CC(C5)C3)C4)cc2)nc1 [Compound 313, 6-(4-((3r,5r,7r)-adamantan-1-yl)phenoxy)-N-methylnicotinamide] |  | 40 to 60 | 70 to 80 | 
16 | O=C(NO)c1cnc(Oc2ccc(C3(C(F)(F)F)CC3)cc2)c(F)c1 [Compound 804, 5-fluoro-N-hydroxy-6-(4-(1-(trifluoromethyl)cyclopropyl)phenoxy)nicotinamide] |  | 0 to 20 | 0 to 20 | 
17 | CCCc1ccc(Oc2ccc(C(N)=O)cc2)cc1 [Compound 140, 4-(4-propylphenoxy)benzamide] | 80 to 90 |  |  | 
18 | CCc1ccc(Oc2ccc(C(=O)NC)cc2)cc1 [Compound 190, 4-(4-ethylphenoxy)-N-methylbenzamide] | 60 to 70 |  |  | 
19 | O=C(NO)c1ccc(Oc2ccc(C3C[C@@H]4CC[C@H]3C4)cc2)cc1 (stereo partly drawn) [Compound 184, 4-(4-((1S,4R)-bicyclo[2.2.1]heptan-2-yl)phenoxy)-N-hydroxybenzamide] |  | 0 to 20 | 0 to 20 | 1.3 to 1.4
20 | O=C(NO)c1ccc(Oc2ccc(C3(C(F)(F)F)CC3)cc2)nc1 [Compound 802, N-hydroxy-6-(4-(1-(trifluoromethyl)cyclopropyl)phenoxy)nicotinamide] |  | 0 to 20 | 0 to 20 | 
21 | O=C(NO)c1ccc(Oc2ccc(C3C[C@@H]4CC[C@H]3C4)cc2)nc1 (stereo partly drawn) [Compound 286, 6-(4-((1S,4R)-bicyclo[2.2.1]heptan-2-yl)phenoxy)-N-hydroxynicotinamide] |  | 0 to 20 | 0 to 20 | 1.3 to 1.4
22 | O=C(NO)c1ccc(Oc2ccc(C3(C(F)(F)C(F)(F)F)CC3)cc2)nc1 [Compound 803, N-hydroxy-6-(4-(1-(perfluoroethyl)cyclopropyl)phenoxy)nicotinamide] |  | 0 to 20 | 0 to 20 | 
23 | COC(=O)c1ccc(Oc2ccc(C3C[C@@H]4CC[C@H]3C4)cc2)nc1 (stereo partly drawn) [Compound 112, methyl 6-(4-((1S,4R)-bicyclo[2.2.1]heptan-2-yl)phenoxy)nicotinate] | 40 to 60 |  |  | 
24 | CCCCc1ccc(Oc2ccc(C(=O)NO)cn2)cc1 [Compound 269, 6-(4-butylphenoxy)-N-hydroxynicotinamide] |  | 0 to 20 | 0 to 20 | 1.4 to 1.7
25 | CNC(=O)c1ccc(Oc2ccc(C3CC4CCC3CC4)cc2)cc1 (stereo not drawn) [Compound 211, 4-(4-((1s,4s)-bicyclo[2.2.2]octan-2-yl)phenoxy)-N-methylbenzamide] |  | 20 to 40 | 40 to 60 | 
26 | O=C(NO)c1cnc(Oc2ccc(C34CC5CC(CC(C5)C3)C4)cc2)c(F)c1 [Compound 648, 6-(4-((3r,5r,7r)-adamantan-1-yl)phenoxy)-5-fluoro-N-hydroxynictinamide] |  | 0 to 20 | 0 to 20 | 
